Reference: paper PMC12749166, “Fragment-based drug design of a bacterial kinase inhibitor capable of increasing the antibiotic sensitivity of clinical isolates” (Communications Chemistry, 2025)

Experiments:
[1] = target: T1, APH(3’)-IIb (Pseudomonas aeruginosa, UniProt Q9HWR2, M95L); experiment: Isothermal Titration Calorimetry; type: binding, P. aeruginosa
T1 sequence (Q9HWR2 1-268 M95L): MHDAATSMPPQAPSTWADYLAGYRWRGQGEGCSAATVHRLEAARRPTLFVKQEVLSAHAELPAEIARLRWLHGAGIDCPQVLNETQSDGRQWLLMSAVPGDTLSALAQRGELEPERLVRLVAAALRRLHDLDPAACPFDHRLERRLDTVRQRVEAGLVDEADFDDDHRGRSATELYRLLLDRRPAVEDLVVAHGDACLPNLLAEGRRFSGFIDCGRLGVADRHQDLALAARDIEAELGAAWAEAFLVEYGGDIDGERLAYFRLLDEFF
Protocol: (§1) ITC experiments were performed on three different machines: a MicroCal VP-ITC (GE Healthcare), a MicroCal PEAQ-ITC (Malvern), or a MicroCal iTC200 (Malvern). The architecture and principles are similar for the three different systems. The experiments were carried out in Buffer HEPES at 25 °C. Titrations consisted of twenty injections of 1.5 µL inhibitors, every 120 seconds, into the measuring cell using the injection syringe rotating at 750 rpm. The data were analyzed using the MicroCal PEAQ-ITC software (v. 1.52, Malvern) using the single-site binding model to fit the raw data. The standard error of the Kd value was determined from measurements made on distinct samples (n indicated in the text).

[2] = target: T2, APH(2”)-IVa (Enterococcus casseliflavus, UniProt O68183); experiment: biochemical
Target sequence in this assay (O68183 1-301): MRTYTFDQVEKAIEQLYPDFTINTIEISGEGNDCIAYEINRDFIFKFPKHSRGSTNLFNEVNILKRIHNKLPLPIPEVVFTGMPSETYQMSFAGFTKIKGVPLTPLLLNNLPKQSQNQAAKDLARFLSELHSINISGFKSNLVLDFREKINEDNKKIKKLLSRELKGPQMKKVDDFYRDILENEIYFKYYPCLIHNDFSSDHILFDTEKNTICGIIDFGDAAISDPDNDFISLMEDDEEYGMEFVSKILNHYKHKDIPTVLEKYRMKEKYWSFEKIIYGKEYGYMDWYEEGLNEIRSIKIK

[3] = target: T3, APH(3’)-Ib (Escherichia coli, UniProt P14509); experiment: biochemical; set-up: species or system E. coli and K. pneumoniae
T3 construct: His-tag (inferred from HisTrap purification); made in house; host or cells: E. coli BL21
T3 sequence (P14509 whole entry): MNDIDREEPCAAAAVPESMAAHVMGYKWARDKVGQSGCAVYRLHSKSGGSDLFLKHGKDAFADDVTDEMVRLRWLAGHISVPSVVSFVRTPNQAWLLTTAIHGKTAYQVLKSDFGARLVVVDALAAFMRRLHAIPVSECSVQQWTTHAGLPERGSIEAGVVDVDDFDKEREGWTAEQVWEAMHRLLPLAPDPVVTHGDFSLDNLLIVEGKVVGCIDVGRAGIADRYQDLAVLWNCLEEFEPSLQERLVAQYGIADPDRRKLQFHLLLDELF

[4] = tested on: S. aureus C0032; experiment: Bacterial growth kinetics over 24 h; type: cell-based; conditions: for Increase of latency: 500 µM 83
[5] = target: T4, APH(3’)-IIa (Klebsiella pneumoniae, UniProt P00552); experiment: biochemical; set-up: species or system K. pneumoniae
T4 construct: His-tag (inferred from HisTrap purification); made in house; host or cells: E. coli BL21
T4 sequence (P00552 whole entry): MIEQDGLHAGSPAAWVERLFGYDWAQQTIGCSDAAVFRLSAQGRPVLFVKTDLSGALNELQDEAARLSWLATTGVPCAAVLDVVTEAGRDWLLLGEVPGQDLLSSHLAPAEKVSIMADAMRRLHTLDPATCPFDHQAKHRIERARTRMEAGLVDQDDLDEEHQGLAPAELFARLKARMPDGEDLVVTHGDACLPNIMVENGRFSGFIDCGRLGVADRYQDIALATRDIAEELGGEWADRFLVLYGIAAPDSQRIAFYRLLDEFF

[6] = tested on: S. aureus C0032; experiment: Checkerboard assay of 83 with kanamycin A; type: cell-based; conditions: for MIC of kanamycin A: 0.125 µg mL^−1 imipenem, 18 h at 37 °C; for checkerboard well reading (growth): Supp. Figure 3 C
[7] = target: T2, APH(2”)-IVa; experiment: biochemical; type: binding
Protocol: as §1
Target sequence in this assay (O68183 1-301): as the sequence (O68183 1-301) above

[8] = target: T2, APH(2”)-IVa; experiment: IC50 by HPLC quantification of ATP and ADP; type: biochemical, E. casseliflavus
Target sequence in this assay (O68183 entry or part of it): as the sequence (O68183 1-301) above
Protocol: (§2) The reaction mixture consists of the APH and its substrates, as well as a potential inhibitor for inhibition measurements. Reactions were initiated by adding the ATP solution supplemented or not with the inhibitor, in a thermostated beaker containing the APH. […] The reaction was stopped at several time points by adding 80 µL of the enzymatic reaction mixture from the beaker to 40 µL of 10% perchloric acid (PCA) in an Eppendorf tube. Samples were then centrifuged for 30 min at 12750 rpm and 8 °C. 100 µL of the supernatant was then mixed with 900 µL of mobile phase (250 mM NaH2PO4, 50% Acetonitrile, pH 5.5) supplemented with KOH to readjust the pH to 5.5 before injection. […] 100 µL of samples were injected on a SAX PartiSphere column (AIT France) at a flow rate of 1 mL min^−1. ATP and ADP peaks were integrated, and the area under the peaks was calculated using OpenLab CDS software (v. ChemStation, Agilent). The kss values were then measured using linear regression in GraFit software and IC50 determined by fitting with a hyperbola the percentage of inhibition as a function of inhibitor concentration. The standard error of the IC50 value was determined in the GraFit software based on the fitting of the experimental data.

[9] = target: T1, APH(3’)-IIb; experiment: biochemical
Protocol: as §2

[10] = tested on: APH(3’)-Ic; type: biochemical, A. baumannii; conditions: 100 µM of 83

Clc1cnc2[nH]ccc2c1-c1ccn[nH]1 [Compound 83]
Kd [1]: 0.27 ± 0.05 µM
ΔH ([1]; ITC): -56.9 kJ/mol
inhibition at 100 µM ([2]; 100 µM of 83): 95%
Ki ([2]; Ki (µM), inhibition constant, ATP-competitive, 0-2 mM MgATP, 100 µM kanamycin A, global fitting): 0.39 ± 0.04 µM
inhibition at 100 µM [3]: 55%
Increase of latency ([4]; 1024 µg mL^−1 kanamycin A): 14 h
Increase of latency ([4]; 2048 µg mL^−1 kanamycin A): 18 h
Growth ([4]; 4096 µg mL^−1 kanamycin A, 250 and 500 µM 83, after 24 h): no growth was detected
Effect on growth kinetics ([4]; 256 and 512 µg mL^−1 kanamycin A, 500 µM 83, absence of imipenem): slowed growth kinetics
Toxicity of 83 alone on bacteria ([4]; up to 500 µM (109 µg mL^−1), no kanamycin A, 24 h): no toxicity
inhibition at 100 µM [5]: 76%
MIC of kanamycin A ([6]; [83] 2 µg mL^−1): 4096 µg/mL
MIC of kanamycin A ([6]; [83] 4 µg mL^−1): 4096 µg/mL
MIC of kanamycin A ([6]; [83] 8 µg mL^−1): 4096 µg/mL
MIC of kanamycin A ([6]; [83] 16 µg mL^−1): 4096 µg/mL
MIC of kanamycin A ([6]; [83] 32 µg mL^−1): 2048 µg/mL
MIC of kanamycin A ([6]; [83] 64 µg mL^−1): 2048 µg/mL
MIC of kanamycin A ([6]; [83] 128 µg mL^−1): 2048 µg/mL
checkerboard well reading (growth) ([6]; 83 1 µg.mL-1, kanamycin A 0 µg.mL-1): 0.496
checkerboard well reading (growth) ([6]; 83 1 µg.mL-1, kanamycin A 2 µg.mL-1): 0.320
checkerboard well reading (growth) ([6]; 83 1 µg.mL-1, kanamycin A 4 µg.mL-1): 0.317
checkerboard well reading (growth) ([6]; 83 1 µg.mL-1, kanamycin A 8 µg.mL-1): 0.300
checkerboard well reading (growth) ([6]; 83 1 µg.mL-1, kanamycin A 16 µg.mL-1): 0.287
checkerboard well reading (growth) ([6]; 83 1 µg.mL-1, kanamycin A 32 µg.mL-1): 0.279
checkerboard well reading (growth) ([6]; 83 1 µg.mL-1, kanamycin A 64 µg.mL-1): 0.255
checkerboard well reading (growth) ([6]; 83 1 µg.mL-1, kanamycin A 128 µg.mL-1): 0.294
checkerboard well reading (growth) ([6]; 83 2 µg.mL-1, kanamycin A 0 µg.mL-1): 0.442
checkerboard well reading (growth) ([6]; 83 2 µg.mL-1, kanamycin A 2 µg.mL-1): 0.315
checkerboard well reading (growth) ([6]; 83 2 µg.mL-1, kanamycin A 4 µg.mL-1): 0.311
checkerboard well reading (growth) ([6]; 83 2 µg.mL-1, kanamycin A 8 µg.mL-1): 0.299
checkerboard well reading (growth) ([6]; 83 2 µg.mL-1, kanamycin A 16 µg.mL-1): 0.295
checkerboard well reading (growth) ([6]; 83 2 µg.mL-1, kanamycin A 32 µg.mL-1): 0.268
checkerboard well reading (growth) ([6]; 83 2 µg.mL-1, kanamycin A 64 µg.mL-1): 0.246
checkerboard well reading (growth) ([6]; 83 2 µg.mL-1, kanamycin A 128 µg.mL-1): 0.245
checkerboard well reading (growth) ([6]; 83 4 µg.mL-1, kanamycin A 0 µg.mL-1): 0.451
checkerboard well reading (growth) ([6]; 83 4 µg.mL-1, kanamycin A 2 µg.mL-1): 0.356
checkerboard well reading (growth) ([6]; 83 4 µg.mL-1, kanamycin A 4 µg.mL-1): 0.318
checkerboard well reading (growth) ([6]; 83 4 µg.mL-1, kanamycin A 8 µg.mL-1): 0.313
checkerboard well reading (growth) ([6]; 83 4 µg.mL-1, kanamycin A 16 µg.mL-1): 0.286
checkerboard well reading (growth) ([6]; 83 4 µg.mL-1, kanamycin A 32 µg.mL-1): 0.267
checkerboard well reading (growth) ([6]; 83 4 µg.mL-1, kanamycin A 64 µg.mL-1): 0.243
checkerboard well reading (growth) ([6]; 83 4 µg.mL-1, kanamycin A 128 µg.mL-1): 0.258
checkerboard well reading (growth) ([6]; 83 8 µg.mL-1, kanamycin A 0 µg.mL-1): 0.402
checkerboard well reading (growth) ([6]; 83 8 µg.mL-1, kanamycin A 2 µg.mL-1): 0.304
checkerboard well reading (growth) ([6]; 83 8 µg.mL-1, kanamycin A 4 µg.mL-1): 0.300
checkerboard well reading (growth) ([6]; 83 8 µg.mL-1, kanamycin A 8 µg.mL-1): 0.292
checkerboard well reading (growth) ([6]; 83 8 µg.mL-1, kanamycin A 16 µg.mL-1): 0.282
checkerboard well reading (growth) ([6]; 83 8 µg.mL-1, kanamycin A 32 µg.mL-1): 0.271
checkerboard well reading (growth) ([6]; 83 8 µg.mL-1, kanamycin A 64 µg.mL-1): 0.244
checkerboard well reading (growth) ([6]; 83 8 µg.mL-1, kanamycin A 128 µg.mL-1): 0.258
checkerboard well reading (growth) ([6]; 83 16 µg.mL-1, kanamycin A 0 µg.mL-1): 0.581
checkerboard well reading (growth) ([6]; 83 16 µg.mL-1, kanamycin A 2 µg.mL-1): 0.303
checkerboard well reading (growth) ([6]; 83 16 µg.mL-1, kanamycin A 4 µg.mL-1): 0.295
checkerboard well reading (growth) ([6]; 83 16 µg.mL-1, kanamycin A 8 µg.mL-1): 0.293
checkerboard well reading (growth) ([6]; 83 16 µg.mL-1, kanamycin A 16 µg.mL-1): 0.274
checkerboard well reading (growth) ([6]; 83 16 µg.mL-1, kanamycin A 32 µg.mL-1): 0.258
checkerboard well reading (growth) ([6]; 83 16 µg.mL-1, kanamycin A 64 µg.mL-1): 0.242
checkerboard well reading (growth) ([6]; 83 16 µg.mL-1, kanamycin A 128 µg.mL-1): 0.200
checkerboard well reading (growth) ([6]; 83 32 µg.mL-1, kanamycin A 0 µg.mL-1): 0.378
checkerboard well reading (growth) ([6]; 83 32 µg.mL-1, kanamycin A 2 µg.mL-1): 0.299
checkerboard well reading (growth) ([6]; 83 32 µg.mL-1, kanamycin A 4 µg.mL-1): 0.294
checkerboard well reading (growth) ([6]; 83 32 µg.mL-1, kanamycin A 8 µg.mL-1): 0.273
checkerboard well reading (growth) ([6]; 83 32 µg.mL-1, kanamycin A 16 µg.mL-1): 0.281
checkerboard well reading (growth) ([6]; 83 32 µg.mL-1, kanamycin A 32 µg.mL-1): 0.249
checkerboard well reading (growth) ([6]; 83 32 µg.mL-1, kanamycin A 64 µg.mL-1): 0.215
checkerboard well reading (growth) ([6]; 83 32 µg.mL-1, kanamycin A 128 µg.mL-1): 0.082
checkerboard well reading (growth) ([6]; 83 64 µg.mL-1, kanamycin A 0 µg.mL-1): 0.357
checkerboard well reading (growth) ([6]; 83 64 µg.mL-1, kanamycin A 2 µg.mL-1): 0.295
checkerboard well reading (growth) ([6]; 83 64 µg.mL-1, kanamycin A 4 µg.mL-1): 0.275
checkerboard well reading (growth) ([6]; 83 64 µg.mL-1, kanamycin A 8 µg.mL-1): 0.274
checkerboard well reading (growth) ([6]; 83 64 µg.mL-1, kanamycin A 16 µg.mL-1): 0.256
checkerboard well reading (growth) ([6]; 83 64 µg.mL-1, kanamycin A 32 µg.mL-1): 0.227
checkerboard well reading (growth) ([6]; 83 64 µg.mL-1, kanamycin A 64 µg.mL-1): 0.165
checkerboard well reading (growth) ([6]; 83 64 µg.mL-1, kanamycin A 128 µg.mL-1): 0.053
checkerboard well reading (growth) ([6]; 83 128 µg.mL-1, kanamycin A 0 µg.mL-1): 0.433
checkerboard well reading (growth) ([6]; 83 128 µg.mL-1, kanamycin A 2 µg.mL-1): 0.365
checkerboard well reading (growth) ([6]; 83 128 µg.mL-1, kanamycin A 4 µg.mL-1): 0.303
checkerboard well reading (growth) ([6]; 83 128 µg.mL-1, kanamycin A 8 µg.mL-1): 0.296
checkerboard well reading (growth) ([6]; 83 128 µg.mL-1, kanamycin A 16 µg.mL-1): 0.283
checkerboard well reading (growth) ([6]; 83 128 µg.mL-1, kanamycin A 32 µg.mL-1): 0.276
checkerboard well reading (growth) ([6]; 83 128 µg.mL-1, kanamycin A 64 µg.mL-1): 0.204
checkerboard well reading (growth) ([6]; 83 128 µg.mL-1, kanamycin A 128 µg.mL-1): 0.066
Impact of 83 alone on bacterial growth ([6]; absence of antibiotics, 83 from 0 to 128 µg mL^−1 (585 µM)): no impact on bacterial growth
Kd [7]: 1.06 ± 0.17 µM
ΔH ([7]; ITC): -46 kJ/mol
IC50 [8]: 0.84 ± 0.13 µM
IC50 [9]: 1.23 ± 0.04 µM
Inhibition (%) [10]: 35%
